Results as given in patent publication US6579541B2, “Oxidative fluorinator compounds as antimicrobials” (priority 2000, dated 2003).

How the values were obtained:
salmonella = test: AOAC culture test of aqueous solutions with salmonella contamination; type: cell-based; settings: ten minutes exposure
Description: Unless otherwise indicated, antimicrobial evaluations of the various fluorinator compounds tested were performed versus control samples in cultures in accordance with the protocol as set forth in AOAC (15th) 1990:965:13 at colony densities indicated in the examples.
Aqueous solutions were prepared having a salmonella contamination at a cell density of about 500,000 cfu/mL. Two solutions of XeF2 were prepared: one as a 1% solution in 85% phosphoric acid stabilizer, and a second solution containing no stabilizer. The materials were cultured versus controls at concentrations of about 2 ppm and about 4 ppm XeF2 and at a pH of about 9.

E. Coli ATCC 81377 = test: Hand soap base culture test; type: cell-based; settings: about 5 ppm XeF2 in hand soap base, about 320,000 cfu/mL, 30 seconds exposure
Description: (§1) These and other aspects of the present invention may be more fully understood with reference to the following examples, which are merely illustrative of the preferred embodiments of the present invention, and are not to be construed as limiting the invention, the scope of which is defined by the appended claims. Unless otherwise indicated, antimicrobial evaluations of the various fluorinator compounds tested were performed versus control samples in cultures in accordance with the protocol as set forth in AOAC (15th) 1990:965:13 at colony densities indicated in the examples.
(§2) A hand soap base was prepared comprising an aqueous mixture of coconut fatty acid amide and sodium lauryl sulfate surfactants. XeF2 was incorporated into the hand soap base at a level of about 5 ppm and four separate cultures containing various microbes at a level of about 320,000 cfu/mL were evaluated.

[1] = system: Enterococcus Faecalis (Vancomycin resistance); test: Hand soap base culture test; type: cell-based; settings: about 5 ppm XeF2 in hand soap base, about 320,000 cfu/mL, 30 seconds exposure
Description: as §1, §2

Salmonella ATC 14 = test: Hand soap base culture test; type: cell-based; settings: about 5 ppm XeF2 in hand soap base, about 320,000 cfu/mL, 30 seconds exposure
Description: as §1, §2

[2] = system: Staph Aureus (Methicillin resistance); test: Hand soap base culture test; type: cell-based; settings: about 5 ppm XeF2 in hand soap base, about 320,000 cfu/mL, 30 seconds exposure
Description: as §1, §2

coliform = test: AOAC culture test of contaminated water, coliform counts; type: cell-based; settings: about 2 PPM XeF2 with about 20 PPM KPS, pH about 7, 37.4 cfu/mL
Description: as §1
Contaminated water was prepared and measured to have AOAC coliform counts averaging 37.4 colony forming units per milliliter (cfu/mL). The water was treated by first adding crystal potassium monopersulfate (KPS) stabilizer, commercially available from E.I. DuPont de Nemours & Co. Corp. as OXONE®, and xenon difluoride (XeF2). The concentration in solution of the KPS and XeF2 was about 20 PPM and about 2 PPM respectively, and the pH of the treated solution was about 7.

bacterial colonies = test: Industrial cooling tower water, standard immersion test kit; settings: about 1 ppm CoF3 with about 10 ppm KPS, about 1,000 gallons of water, after 24 hours
Excerpt: An industrial cooling tower containing about 1,000 gallons of water tested positive for a high bacterial colony count using a standard immersion test kit.

| SMILES | inhibition (salmonella; about 2 ppm XeF2, pH about 9, about 500,000 cfu/mL) | inhibition (salmonella; about 4 ppm XeF2, pH about 9, about 500,000 cfu/mL) | Inhibition (%) (E. Coli ATCC 81377) | Inhibition (%) [1] [%] | Inhibition (%) (Salmonella ATC 14) | Inhibition (%) [2] [%] | coliform inhibited (coliform; 5 minutes exposure) | coliform inhibited (coliform; 10 minutes exposure) | immersion kit test result on cooling tower water (bacterial colonies) |
| --- | --- | --- | --- | --- | --- | --- | --- | --- | --- |
| F[Xe]F [XeF2, xenon difluoride] | about 13.2% | about 96.4% | 99.9 | 99.9 | 99.9 | 99.5 | about 73% | about 77% |  |
| [F][Co]([F])[F] [CoF3, cobalt trifluoride] |  |  |  |  |  |  |  |  | complete destruction of bacterial colonies |
